By Ki is commonly meant a dissociation constant, usually derived from enzyme kinetics or from competition with a known ligand. Usually EC50 stands for the concentration that produces a half-maximal response. For orientation: Emax means the size of the effect at its maximum, as opposed to the concentration needed. The term IC50 denotes the midpoint of a concentration-inhibition curve. Read a high IC50 as weaker potency in that assay.

Residues, ends and D or L forms follow the SMILES beside them.

Experiment [1] deals with T1, Neuropeptide Y receptor type 5 (Homo sapiens, UniProt Q15761).
T1 sequence (Q15761 whole entry): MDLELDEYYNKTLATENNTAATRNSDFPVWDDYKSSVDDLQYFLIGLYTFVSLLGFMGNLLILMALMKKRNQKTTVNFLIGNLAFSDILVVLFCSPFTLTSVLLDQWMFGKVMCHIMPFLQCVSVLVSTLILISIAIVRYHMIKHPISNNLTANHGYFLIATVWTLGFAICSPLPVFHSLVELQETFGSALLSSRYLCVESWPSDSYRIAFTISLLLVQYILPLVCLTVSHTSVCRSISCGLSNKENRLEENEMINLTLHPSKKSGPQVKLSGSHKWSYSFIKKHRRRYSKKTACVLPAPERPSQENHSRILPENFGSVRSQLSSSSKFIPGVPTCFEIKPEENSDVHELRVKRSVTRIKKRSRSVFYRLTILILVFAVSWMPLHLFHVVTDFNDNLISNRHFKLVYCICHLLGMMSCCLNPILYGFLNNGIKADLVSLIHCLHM
In words: Binding affinity to Y5 receptor (unknown origin).

Experiment [2] has as its target T2, Neuropeptide Y receptor type 1 (Homo sapiens, UniProt P25929).
T2 sequence (P25929 whole entry): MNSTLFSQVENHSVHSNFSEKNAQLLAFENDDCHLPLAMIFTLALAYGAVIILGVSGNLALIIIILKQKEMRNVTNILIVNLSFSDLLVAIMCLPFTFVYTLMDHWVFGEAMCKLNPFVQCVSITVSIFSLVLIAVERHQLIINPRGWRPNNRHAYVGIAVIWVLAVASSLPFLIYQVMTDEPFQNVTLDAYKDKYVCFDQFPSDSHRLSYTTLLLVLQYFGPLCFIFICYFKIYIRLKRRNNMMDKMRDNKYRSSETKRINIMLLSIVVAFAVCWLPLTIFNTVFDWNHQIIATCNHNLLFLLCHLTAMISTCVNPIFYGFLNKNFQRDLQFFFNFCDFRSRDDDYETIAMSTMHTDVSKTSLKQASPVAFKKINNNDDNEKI
In words: Binding affinity to Y1 receptor (unknown origin).

Experiment [3] deals with T1, Neuropeptide Y receptor type 5. In words: Displacement of Cy5-pNPY from human Y5 receptor expressed in human HEC-1B cells after 90 to 120 mins by flow cytometry. It is filed as cell-based. For orientation: Flow cytometry measures light scatter and fluorescence of single cells or particles in a stream.
Experiment [4] addresses T3, Neuropeptide Y receptor type 2 (Homo sapiens, UniProt P49146).
T3 sequence (P49146 whole entry): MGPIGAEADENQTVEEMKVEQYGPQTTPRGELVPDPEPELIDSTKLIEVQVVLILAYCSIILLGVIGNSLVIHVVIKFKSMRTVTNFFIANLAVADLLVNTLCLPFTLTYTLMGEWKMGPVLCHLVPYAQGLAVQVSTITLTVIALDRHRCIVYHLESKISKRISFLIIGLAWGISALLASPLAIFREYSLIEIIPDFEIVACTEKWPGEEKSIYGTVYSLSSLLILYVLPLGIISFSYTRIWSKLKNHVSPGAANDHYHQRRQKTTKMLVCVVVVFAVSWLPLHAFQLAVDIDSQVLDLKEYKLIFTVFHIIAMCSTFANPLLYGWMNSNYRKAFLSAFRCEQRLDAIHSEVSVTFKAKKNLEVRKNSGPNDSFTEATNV
Briefly: Displacement of Cy5-pNPY from human Y2 receptor expressed in CHO cells after 90 to 120 mins by flow cytometry. It counts as cell-based.

Experiment [5] has as its target T2, Neuropeptide Y receptor type 1. In words: Displacement of Cy5-pNPY from human Y1 receptor expressed in HEL cells after 90 to 120 mins by flow cytometry. It is filed as cell-based.
Experiment [6] has as its target T4, Neuropeptide Y receptor type 4 (Homo sapiens, UniProt P50391). In words: Partial agonist activity at human Y4 receptor expressed in sf9 cells assessed as hydrolysis of [gamma-33P]GTP after 2 mins by scintillation counting analysis.
Experiment [7] concerns the target T4, Neuropeptide Y receptor type 4. In words: Displacement of Cy5-[K4]hPP from human Y4 receptor expressed in CHO cells after 90 to 120 mins by flow cytometry. It is filed as cell-based.
For experiment [8] the target is unchanged. In words: Partial agonist activity at human Y4 receptor expressed in sf9 cells assessed as hydrolysis of [gamma-33P]GTP after 2 mins by scintillation counting analysis relative to hPP.
A short description of experiment [9]: Binding affinity to Y2 receptor (unknown origin). Further details: species or system Homo sapiens.

T4 sequence (P50391 whole entry): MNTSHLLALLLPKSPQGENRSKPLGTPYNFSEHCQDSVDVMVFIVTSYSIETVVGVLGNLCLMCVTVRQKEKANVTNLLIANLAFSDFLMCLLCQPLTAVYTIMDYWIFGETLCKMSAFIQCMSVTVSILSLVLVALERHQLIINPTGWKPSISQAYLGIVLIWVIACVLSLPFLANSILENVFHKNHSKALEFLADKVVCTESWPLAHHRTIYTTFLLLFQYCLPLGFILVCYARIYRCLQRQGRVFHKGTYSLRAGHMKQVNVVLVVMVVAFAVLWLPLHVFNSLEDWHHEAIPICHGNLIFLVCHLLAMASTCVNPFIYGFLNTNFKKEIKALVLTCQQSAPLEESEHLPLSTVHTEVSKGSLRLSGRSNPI

Regarding `CC[C@H](C)[C@H](NC(=O)[C@H](Cc1ccc(O)cc1)NC(=O)[C@H](Cc1cnc[nH]1)NC(=O)[C@H](CCCN=C(N)N)NC(C)=O)C(=O)N[C@@H](CC(N)=O)C(=O)N[C@@H](CC(C)C)C(=O)N[C@@H](CCCN=C(N)N)C(=O)N[C@@H]1[C@H](C(=O)N[C@@H](CCCN=C(N)N)C(=O)N[C@@H]2[C@H](C(=O)N[C@@H](CCCN=C(N)N)C(=O)N[C@@H](Cc3ccc(O)cc3)C(N)=O)[C@H]2C(=O)OC)[C@H]1C(=O)OC` (HELM PEPTIDE1{[ac].R.H.Y.I.N.L.R.[COC(=O)[C@H]1[C@H](N[*:1])[C@@H]1C(=O)[*:2]].R.[COC(=O)[C@H]1[C@H](N[*:1])[C@@H]1C(=O)[*:2]].R.Y.[am]}$$$$V2.0), the figures for the Ki in [1] and in experiment [2] were 0.617 µM and 0.05 µM, respectively.
Turning to `CC[C@H](C)[C@H](NC(=O)[C@H](Cc1ccc(O)cc1)NC(=O)[C@H](Cc1cnc[nH]1)NC(=O)[C@H](CCCN=C(N)N)NC(C)=O)C(=O)N[C@@H](CC(N)=O)C(=O)N[C@@H](CC(C)C)C(=O)N[C@H](C(=O)N[C@H](C(=O)N[C@@H](CCCN=C(N)N)C(=O)N[C@H]1CCC[C@H]1C(=O)N[C@@H](CCCN=C(N)N)C(=O)N[C@@H](Cc1ccc(O)cc1)C(N)=O)[C@@H](C)O)[C@@H](C)CC` (HELM PEPTIDE1{[ac].R.H.Y.I.N.L.I.T.R.[O=C([C@@H]1CCC[C@@H]1N[*:1])[*:2]].R.Y.[am]}$$$$V2.0), the Ki in [3] was over 0.5 µM; in experiment [4], over 1 µM; in [5], over 1 µM; in experiment [7], 0.01 µM. The EC50 in [6] is 0.041 µM.
Regarding `CCCC[C@H](NC(=O)[C@H](CC(N)=O)NC(=O)[C@@H](NC(=O)[C@H](Cc1ccc(O)cc1)NC(=O)[C@H](CCCNC(=N)N)NC(=O)[C@H](CCCNC(=N)N)NC(C)=O)[C@@H](C)CC)C(=O)N[C@@H](CC(C)C)C(=O)N[C@H](C(=O)N[C@@H](CCCNC(=N)N)C(=O)N1CCC[C@H]1C(=O)N[C@@H](CCCNC(=N)N)C(=O)N[C@@H](Cc1ccc(O)cc1)C(N)=O)[C@@H](C)O` (HELM PEPTIDE1{[ac].R.R.Y.I.N.[Nle].L.T.R.P.R.Y.[am]}$$$$V2.0), the Ki in [3] was over 1 µM; in experiment [4] it was over 1 µM; in [5] it was 0.281 µM; in experiment [7], 0.075 µM. Besides, in [8], the Emax came to 70%. In addition, the half-maximal effective concentration (EC50) in experiment [6] is 0.053 µM.
As to `CC[C@H](C)[C@H](NC(=O)[C@H](Cc1ccc(O)cc1)NC(=O)[C@H](Cc1cnc[nH]1)NC(=O)[C@H](CCCNC(=N)N)NC(C)=O)C(=O)N[C@@H](CC(N)=O)C(=O)N[C@@H](CC(C)C)C(=O)N[C@H](C(=O)N[C@H](C(=O)N[C@@H](CCCNC(=N)N)C(=O)N[C@H]1CCC[C@H]1C(=O)N[C@@H](CCCNC(=N)N)C(=O)N[C@@H](Cc1ccc(O)cc1)C(N)=O)[C@@H](C)O)[C@@H](C)CC` (HELM PEPTIDE1{[ac].R.H.Y.I.N.L.I.T.R.[O=C([C@@H]1CCC[C@@H]1N[*:1])[*:2]].R.Y.[am]}$$$$V2.0), in [8], the Emax worked out at 71%.
Take `CC[C@H](C)[C@H](NC(=O)[C@H](Cc1ccc(O)cc1)NC(=O)[C@H](Cc1cnc[nH]1)NC(=O)[C@H](CCCNC(=N)N)NC(C)=O)C(=O)N[C@@H](CC(N)=O)C(=O)N[C@@H](CC(C)C)C(=O)N[C@H](C(=O)N[C@H](C(=O)N[C@@H](CCCNC(=N)N)C(=O)N[C@@H]1[C@H](C(=O)N[C@@H](CCCNC(=N)N)C(=O)N[C@@H](Cc2ccc(O)cc2)C(N)=O)[C@H]1C(=O)OC)[C@@H](C)O)[C@@H](C)CC` (HELM PEPTIDE1{[ac].R.H.Y.I.N.L.I.T.R.[COC(=O)[C@H]1[C@H](N[*:1])[C@@H]1C(=O)[*:2]].R.Y.[am]}$$$$V2.0): the Ki amounted to 0.118 µM in experiment [1] and 0.029 µM in experiment [2].
In experiment [9], Ac-RHYINLIYRLRY-NH2 gave an IC50 of 0.012 µM.
